Measured values as given in publication PMC8196835, “Antibacterial Properties of Small-Size Peptide Derived from Penetratin against Oral Streptococci” (Materials, 2021).
Values after ≈ are worked out from the molar mass of the structure shown. Residues, ends and D or L forms follow the SMILES beside them.

Columns and labels:
sspA gene of S. gordonii = test: RT-PCR of sspA gene expression; assay type: cell-based; settings: RR9 25 μg mL^−1 (MIC), 24 h, p < 0.05
Description: Trizol reagent was employed to extract the total RNA of S. gordonii cells, following the manufacturer’s instructions. The first strand of cDNA was synthesized by the retrotranscription of 2 μL of RNA (Invitrogen, TRIzol Max Bacterial RNA Isolation Kit). The cDNA was amplified to a final volume of 20 μL by 45 cycles in a DNA thermal circulatory apparatus. Pre-denaturation was carried out at 95 °C for 15 s, and the reaction was performed at 95 °C for 10 s, 60 °C for 20 s, and 72 °C for 30 s. The primer sequences of the differentiation markers are shown in Table A1 in Appendix B. After amplification, GAPDH was defined as the internal reference gene, and the sample of the control group was set as the standard to obtain the CT value of each target gene for each sample. The data were analyzed using the relative quantification of ΔCT. The relative quantitative (RQ) values of all target genes were obtained according to the formula RQ = 2^−ΔΔCT.

tested bacteria = settings: cited from earlier work
From the text: To overcome the drawbacks of using cationic peptides as a new generation of antibiotics, researchers began to synthesize new short peptides by reducing the residue of the peptide chain for use as candidate drugs in clinical trials. […] Therefore, we aimed to figure out the antibacterial activity of RR9 on initial oral colonizers, specifically S. oralis, S. gordonii, and S. sanguinis ... || Antibiotics are used excessively and inappropriately in clinic. As a result, it directly leads to the weakening of the effect of antibiotics and the emergence of drug-resistant pathogens. Among new biomedical alternatives, antimicrobial peptides (AMPs) and cell-penetrating peptides (CPPs) are considered promising candidates. CPPs are a new carrier that can pass through the cell membrane without cell surface receptor recognition and can deliver therapeutic drugs to the cell membrane. One of the most well-known examples of CPPs is penetratin (RQIKIWFQNRRMKWK ...

[1] = system: streptococci biofilm (S. oralis, S. gordonii, S. sanguinis); assay type: cell-based; settings: RR9 25 μg mL^−1, 24 h at 37 °C, preformed 24 h biofilm, AO/EB
Description: Each bacteria suspension (300 μL) was mixed with BHI broth (900 μL) and then cultured for 24 h in a 24-well microtiter plate for biofilm formation. After the removal of the medium and unattached bacterial cells, RR9 (25 μg mL^−1) with saliva or serum was added, and the resulting samples were cultured for another 24 h at 37 °C. After the staining of the attached bacteria using an acridine orange/ethidium bromide (AO/EB) solution (Solarbio, Beijing, China), CLSM (Leica SP8, Oskar-Barnack-Strae Germany) was used to count the number of observed bacterial cells. For each biofilm strain, three representative areas per lens were scanned in at least three separate experiments. The images were captured using MetaMorph software (Universal Imaging, West Chester, PA, USA).

[2] = system: S. gordonii (ATCC No 10558); assay type: cell-based, Streptococci gordonii; settings: ATCC No 10558, 24 h
Description: (§1) The bacterial strains S. oralis (ATCC No 9811), S. sanguinis (ATCC No 10556), and S. gordonii (ATCC No 10558) were purchased from the ATCC (American Type Culture Collection, Manassas, VA, USA). The cultivation method was the same as that described in a previous article.
(§2) The bacterial growth inhibiting ability of the peptide was determined using a broth microdilution-based method with modifications. […] The start inoculum was 5 × 10^7 CFU mL^−1, and the MIC was denoted as the lowest concentration of peptides where bacterial growth was stopped. After bacteria were treated with RR9 for 24 h, 20 uL was removed from each sample and spread on a brain heart infusion (BHI) agar plate. The CFU on plates were counted after incubation at 37 °C for 5 days. The MBC is the concentration of RR9 where over 99.9% of the cells were inhibited.

[3] = system: planktonic oral streptococci (S. oralis, S. sanguinis, S. gordonii); test: Time-kill assay; assay type: cell-based
Description: To evaluate the effect of RR9 on planktonic oral streptococci, the time-killing assay was used. First, 200 μL of RR9 solution and 800 μL of BHI broth were mixed with 1 mL of bacterial culture (5 × 10^7 CFU mL^−1), yielding 2 mL of the final volume with 100%, 200%, or 400% of the MBC final peptide concentrations. After 0, 0.25, 0.5, 1, 2, 4, 24, and 48 h of incubation at 37 °C, 10 μL of each suspension was pipetted, serially diluted 10 times, and finally transferred to a BHI agar plate for CFU determination. The time–kill kinetic curves were obtained by recording log(CFU mL^−1) as a function of incubation time […].

[4] = system: S. sanguinis (ATCC No 10556); assay type: cell-based, Streptococci sanguinis; settings: ATCC No 10556, 24 h
Description: as §1, §2

[5] = system: streptococci biofilms and cell membranes; test: SEM and TEM observation of bacterial morphology; assay type: cell-based, S. oralis, S. gordonii, S. sanguinis; settings: RR9 25 μg mL^−1, 24 h (SEM), 12 h (TEM)
From the text: The morphology of the formed biofilm was observed using scanning electron microscopy (SEM, SUPRA 55VP, Germany) following previously published procedures. Additionally, the transmission electron microscopy (TEM, JEM-2100F; JEOL Ltd., Tokyo, Japan)-based technique was employed for the structural analysis of RR9 cells according to the previously reported method. For more details, please check Appendix A.
A sterile coverslip was placed in a 24-well plate and was as described above. The coverslips with biofilms were fixed with 2.5% (v/v) glutaraldehyde, and the samples were dehydrated with increasing concentrations of ethanol for 15 min each. Prior to field-emission SEM, the samples were subjected to gold sputtering.
After incubation with RR9 (25 μg mL^−1) or without the peptide (control group) for 12 h at 37 °C in an anaerobic chamber (N2: 80%; H2: 10%; CO2: 10%), super-thin slice samples were prepared for TEM using a previously reported method. The cells were fixed with 2.5% glutaraldehyde at 4 °C for 4 h and, then, dyed with 2% uranyl acetate and 0.2% citrate before being observed under electron.

S. oralis (ATCC No 9811) = assay type: cell-based, Streptococci oralis; settings: ATCC No 9811, 24 h
Description: as §1, §2

[6] = system: human gingival fibroblasts (HGFs); assay type: cell-based; settings: RR9 25 μg mL^−1, 1–4 days, CCK-8 OD 450 and AO/EB CLSM
Description: HGFs were purchased from Procell Life Science & Technology (Wuhan, China). Cells from passages 4 to 6 were used. The cultivation method was described previously.
The HGFs (2 × 10^3 cells per well) were cultured in DMEM supplemented with 10% FBS in a humidified incubator (37 °C, 5% CO2 atmosphere) for 24 h. Pretreatment of the cells was conducted by incubating with 25 μg mL^−1 RR9 for 1, 2, 3, and 4 days. Untreated cells were used as a negative control. The samples were characterized using the Cell Counting Kit-8 (Dojindo Laboratories, Kumamoto, Japan) by measuring their absorbance at 450 nm using a microplate reader (BioTek Synergy HT, Vermont, USA). After staining using AO/EB live/dead dye, the viability of seeded cells on the sterile coverslips was determined using CLSM. Each sample consisted of five wells.

[7] = system: streptococci biofilm (S. oralis, S. gordonii, S. sanguinis); test: Biofilm susceptibility, crystal violet; assay type: cell-based; settings: RR9 25 μg mL^−1 (MIC), 24 h, n = 3, p < 0.05
Description: The antibacterial agents were evaluated by the microdilution method to study their impact on biofilm formation. In our study, streptococci (5 × 10^7 CFU mL^−1) mixed with RR9 were cultured for 24 h. The formed biofilm was fixed using methanol (95%) and stained using 0.5% (w/v) crystal violet, and the final OD at 600 nm was measured.

mammalian cells = settings: cited from earlier work
From the text: Antibiotics are used excessively and inappropriately in clinic. As a result, it directly leads to the weakening of the effect of antibiotics and the emergence of drug-resistant pathogens. Among new biomedical alternatives, antimicrobial peptides (AMPs) and cell-penetrating peptides (CPPs) are considered promising candidates. CPPs are a new carrier that can pass through the cell membrane without cell surface receptor recognition and can deliver therapeutic drugs to the cell membrane. One of the most well-known examples of CPPs is penetratin (RQIKIWFQNRRMKWK ...

Row | Compound | expression of the sspA gene versus control (sspA gene of S. gordonii) | antimicrobial effect against selected bacteria (tested bacteria) | anti-biofilm effect of RR9 with saliva or serum compared with RR9 alone (CLSM live/dead) [1] | MBC [2] [µg/mL] | MIC [2] [µg/mL] | time to complete bacterial death ([3]; 100%, 200% or 400% of the MBC, 37 °C, all tested strains) [h] | duration of the antimicrobial effect ([3]; time-kill over 48 h) [h] | MBC [4] [µg/mL] | MIC [4] [µg/mL] | bacterial morphology and membrane integrity (SEM, TEM) [5] | MBC (S. oralis (ATCC No 9811)) [µg/mL] | MIC (S. oralis (ATCC No 9811)) [µg/mL] | cytotoxicity toward HGFs [6] | biofilm formation, OD at 600 nm versus control [7] | cytotoxicity toward mammalian cells (mammalian cells) | bactericidal effect on the tested bacteria (tested bacteria)
1 | CC[C@H](C)[C@H](NC(=O)[C@H](CCC(N)=O)NC(=O)[C@@H](N)CCCNC(=N)N)C(=O)N[C@@H](CCCNC(=N)N)C(=O)N[C@@H](CCCNC(=N)N)C(=O)N[C@@H](Cc1c[nH]c2ccccc12)C(=O)N[C@@H](Cc1c[nH]c2ccccc12)C(=O)N[C@@H](CCC(N)=O)C(=O)N[C@@H](CCCNC(=N)N)C(N)=O [RR9, Arg-Gln-Ile-Arg-Arg-Trp-Trp-Gln-Arg-NH2] (H-RQIRRWWQR-NH2; N-terminus assumed) | significantly reduced | strong antimicrobial effect | No significant difference | 50 (≈ 36.1 µM) | 25 (≈ 18.1 µM) | 24 to 48 | 44 | 62.5 (≈ 45.2 µM) | 25 (≈ 18.1 µM) | the bacteria swelled, and some cell membranes were damaged | 62.5 (≈ 45.2 µM) | 25 (≈ 18.1 µM) | negligible cytotoxicity | reduced OD value | – | –
2 | RQIKIWFQNRRMKWKK-NH2 [penetratin, well-known cell-penetrating peptide, …-NH2] | – | – | – | – | – | – | – | – | – | – | – | – | – | – | without any cytotoxicity | strong bactericidal effect
